According to article PMC11235159, “Targeting a microbiota Wolbachian aminoacyl-tRNA synthetase to block its pathogenic host” (Science Advances, 2024):
Like-named read-outs stand apart in the source and are kept apart here.

Assays:
[1] = molecular target: T1, Wolbachia LeuRS (full-length) (Wolbachia sp. subsp. Brugia malayi, UniProt Q5GS31); test: Reactivation rate (half-life of inhibition) of Wolbachia LeuRS after dilution of inhibitor complex; type: biochemical; details: time for LeuRS to recover 50% of its activity after 200-fold dilution
Experimental: Wolbachianinfection model.
All reactions were performed in […]

[2] = test system: W. pipientis (wAlbB) in C6/36 cells; test: A·WOL anti-Wolbachia screening assay in infected C6/36 (wAlbB) insect cells; type: cell-based, Wolbachia pipientis; details: for EC50: Wolbachia pipientis, 168 h, 7 days
From the text: To identify active compounds against Wolbachia, we carried out a high-throughput screening assay by testing a library of 202 benzoxaborole compounds in a host-cell model of Wolbachia infection ([5], [18]), which yielded an 18% hit rate. […] The screening in cells was combined with activity experiments (aminoacylation) performed with recombinant full-length Wolbachia LeuRS protein, which were used to calculate the half-maximum inhibitory concentration (IC50) for the most interesting compounds identified in the cell screening. Thus, this yielded compounds with both good anti-Wolbachian in vitro activity and in vivo efficacy, with representative compounds shown in table S1. […] Moreover, the potent in vitro activity of Cmpd9 translated in very good in cellulo efficacy (EC50 = 90 nM) in the Wolbachia infection model (Fig. 1, D and E, and table S1).
The efficacy of compounds, determined as EC50 against Wolbachia in infected host cells, was determined through the anti-Wolbachia consortium’s (A·WOL) routine screening assay as described previously ([18], [27], [29]). […] Compounds were incubated for 7 days with 2000 cells per well on a 384-well plate (CellCarrier-384 Ultra, PerkinElmer) in Leibovitz media (Life Technologies) supplemented with 20% fetal bovine serum (FBS, Thermo Fisher Scientific), 2% tryptose phosphate broth (Sigma-Aldrich), and 1% nonessential amino acids (Sigma-Aldrich). The endpoint readout utilized DNA staining of both the host cell nuclei and intracellular Wolbachia (SYTO 11) combined with a high content imaging system (Operetta, PerkinElmer) and analyzed using the associated Harmony software through a cytoplasm texture analysis. Stock solutions at 10 mM of chemical compounds were prepared in dimethyl sulfoxide (DMSO). Chemical compounds were provided by chemical manufactures (ChemPartner and Anacor Pharmaceuticals), and quality control was verified by NMR spectroscopy (^1H-NMR) and liquid chromatography coupled to mass spectrometry. […]
†The half-maximum effective concentrations (EC50) were calculated in cells infected with Wolbachia […]

[3] = molecular target: Wolbachia LeuRS (residues 219 to 418) (Wolbachia sp. subsp. Brugia malayi, UniProt Q5GS31); test: Thermal shift assay (DSF), Wolbachia LeuRS editing domain; type: binding; details: wild-type Wolbachia LeuRS construct, in the presence of AMP, vs free protein
Experimental: The thermal shift assays (TSAs) were performed using a qPCR CFX96 (Bio-Rad) with the FRET scan mode. Samples were prepared in a TSA buffer containing 50 mM Hepes (pH 7.5) and 150 mM NaCl. Each well contained 2 μl of samples as prepared for the crystallization trials, 18 μl of TSA buffer, and 20 μl of 10× SYPRO orange (S6650, Thermo Fisher Scientific).

[4] = ITC titration of compound into AMP in the absence of protein (adduct formation); type: binding; details: no protein
Experimental: To quantitatively assess the formation of the adenosine-based inhibitor adducts, we performed ITC experiments by titrating Cmpd9 into AMP in the absence of protein (fig. S3D). […]
spectra of AMP/ATP alone or in equimolar (5 mM) mixtures with Cmpd6. A zoomed-in view on the aromatic NMR signals of AMP/ATP is shown. Upon addition of the compounds, the NMR signals of the aromatic groups of AMP/ATP split into an additional two peaks corresponding to the two adducts formed. (C) Spontaneous cyclization of Cmpd6 with ATP/AMP leading to the formation of two diastereomer adducts based on the pseudo symmetry of the ribose. For convenience, adducts with an exo-ribose in panel c) are denote as ty pe “a”, and those with endo-ribose as adducts of type “b”. (D) Isothermal Titration Calorimetry experiment with Cmpd9 injected into AMP leading to the formation of adducts by Cmpd9.
The experiment was performed in triplicate.

Wolbachia LeuRS = Wolbachia LeuRS (Wolbachia sp. subsp. Brugia malayi, UniProt Q5GS31); details: ITC; for binding to Wolbachia LeuRS (in words): in the absence of AMP; for -T∆S / ∆G / ∆H: in the presence of AMP
From the text: We designed constructs of the Wolbachia LeuRS editing domain (fig. S1), which bear the putative drug-binding pocket, for expression and purification of recombinant proteins. Two constructs gave soluble and well-behaving proteins that were used for biophysical and structural studies: a construct encoding for residues 219 to 418, herein named Wolbachia LeuRS; and another construct named Wolbachia LeuRS D1, for which part of an insertion specific to Wolbachia LeuRS (herein denoted as i1) and predicted to be highly disordered was partially deleted (354 to 377) (fig. S1). […] To quantitatively assess the affinity of these compounds to Wolbachia LeuRS, isothermal titration calorimetry (ITC) experiments were carried out.
ITC measurements were performed on a MicroCal iTC200 (GE Healthcare, PA) at 25°C. Wolbachia LeuRS samples were previously dialyzed into the ITC buffer 50 mM Hepes-KOH, pH 7.5, 30 mM KCl, 30 mM MgCl2, and 5 mM β-mercaptoethanol and adjusted to a final concentration of 70 μM. […] A typical ITC experiment consisted of 26 injections of 1.5 μl every 180 s at a stirring speed of 750 rpm. The raw data were processed using MicroCal PEAQ-ITC (v. 1.0.0.1259, Malvern) and Microcal Origin for ITC (v. 7.0).
Thermodynamic parameters were calculated from fitting the binding isotherms to a one-site binding site and
independent model. Experiments were done at least in duplicates.
All the experiments were performed in the presence of AMP, which acts as a surrogate of ATP or tRNALeu
terminal adenosine (Ade76).

[5] = molecular target: T1, Wolbachia LeuRS (full-length); test: biochemical
Experimental: The full-length Wolbachia LeuRS construct corresponds to residues 1 to 865 of Wolbachia sp. Brugia malayi (Uniprot Q5GS31).
The IC50 values were calculated using a similar approach as described earlier ([19], [20]). Briefly, Wolbachia full-length LeuRS, total E. coli tRNA crude extract (Roche), and compounds were preincubated for 20 min in 50 mM Hepes-KOH (pH 8.0), 30 mM MgCl2, 30 mM KCl, 0.02% (wt/vol) bovine serum albumin, and 1 mM dithiothreitol with 20 μM [^14C]leucine (306 mCi/mmol; PerkinElmer) at 30°C. Reactions were started by the addition of 4 mM ATP and, at specific times, tRNA was precipitated by the addition of 10% (w/v) trichloroacetic acid (TCA), recovered by filtration (Millipore Multiscreen; MSHAN4B50), washed with 5% TCA (w/v), and counted by a liquid scintillation counter (Wallac). […] The reactivation rates (T½) were determined by measuring the time required for Wolbachia LeuRS to recover 50% of its activity. […] LeuRS inhibitor complexes were then diluted 200-fold, and enzyme activity was determined at various time intervals, as described before. Compound reactivation rates were determined by fitting the LeuRS activity reactivation curves to a one-phase exponential decay model (GraphPad Prism).
*The half-maximum inhibitory concentrations (IC50) and half-life inhibition times (T ½) were calculated from aminoacylation assays with recombinant protein and tRNA (see methods). […]

Sequence of Wolbachia LeuRS (Q5GS31 219-418): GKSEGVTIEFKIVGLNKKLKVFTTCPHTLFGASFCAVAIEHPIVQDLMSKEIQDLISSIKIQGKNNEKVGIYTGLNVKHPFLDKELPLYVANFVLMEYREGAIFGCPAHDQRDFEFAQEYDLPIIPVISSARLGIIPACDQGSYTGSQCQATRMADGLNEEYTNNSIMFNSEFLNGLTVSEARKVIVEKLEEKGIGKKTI
T1 sequence (Q5GS31 whole entry): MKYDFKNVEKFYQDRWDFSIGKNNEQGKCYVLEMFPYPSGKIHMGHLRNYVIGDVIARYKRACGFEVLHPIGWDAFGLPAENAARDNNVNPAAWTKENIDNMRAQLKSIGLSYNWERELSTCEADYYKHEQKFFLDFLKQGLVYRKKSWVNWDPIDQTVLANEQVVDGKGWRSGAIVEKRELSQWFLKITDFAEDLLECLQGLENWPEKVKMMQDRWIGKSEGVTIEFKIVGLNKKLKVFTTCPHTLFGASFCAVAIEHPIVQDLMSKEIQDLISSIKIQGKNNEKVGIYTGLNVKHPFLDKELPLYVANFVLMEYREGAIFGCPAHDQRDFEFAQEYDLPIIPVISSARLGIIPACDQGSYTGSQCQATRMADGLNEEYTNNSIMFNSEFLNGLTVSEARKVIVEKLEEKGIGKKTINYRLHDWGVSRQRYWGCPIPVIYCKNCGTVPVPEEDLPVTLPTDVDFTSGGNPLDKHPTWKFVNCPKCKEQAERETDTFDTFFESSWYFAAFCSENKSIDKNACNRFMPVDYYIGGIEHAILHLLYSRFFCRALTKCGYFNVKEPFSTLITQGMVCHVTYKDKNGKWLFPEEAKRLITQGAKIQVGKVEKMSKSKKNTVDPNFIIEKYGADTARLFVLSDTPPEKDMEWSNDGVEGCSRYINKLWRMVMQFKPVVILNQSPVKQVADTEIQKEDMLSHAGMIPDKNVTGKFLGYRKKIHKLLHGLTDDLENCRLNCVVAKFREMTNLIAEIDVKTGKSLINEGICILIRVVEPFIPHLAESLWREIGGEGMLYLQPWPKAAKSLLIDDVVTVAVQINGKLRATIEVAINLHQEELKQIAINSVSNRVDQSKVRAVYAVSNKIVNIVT
Sequence of Wolbachia LeuRS (residues 219 to 418) (Q5GS31 219-418): as the sequence (Q5GS31 219-418) above

Structure (SMILES): NC[C@H]1OB(O)c2c(OCCC(=O)Nc3nccs3)ccc(Br)c21 [Cmpd6]
- T ½ (half-life inhibition time, reactivation rate) [1]: 0.0183 h
- EC50 ([2]; C6/36 (wAlbB) cells, read-out: Efficacy in Infected Host EC50): > 10 µM
- increase of the melting temperature ∆Tm [3]: 13 °C
- binding isotherm with AMP (in words) ([4]; compared with Cmpd9 into AMP): equivalent binding isotherm
- binding to Wolbachia LeuRS (in words) (Wolbachia LeuRS): did not bind
- -T∆S (Wolbachia LeuRS): -4.48 kcal/mol
- ∆G (Wolbachia LeuRS): -10.08 kcal/mol
- ∆H (Wolbachia LeuRS): -5.60 kcal/mol
- IC50 [5]: 0.06 µM

Structure (SMILES): CN(CCCOc1ccc(Br)c2c1B(O)O[C@@H]2CN)Cc1ccccc1 [Cmpd9]
- T ½ (half-life inhibition time, reactivation rate) [1]: 3.77 h
- Wolbachia load in host cells (in words) ([2]; 9 μM for 7 days, C6/36 (wAlbB)): Reduction of Wolbachia load
- EC50 ([2]; Wolbachia infection model, C6/36 (wAlbB), read-out: in cellulo efficacy EC50): 0.09 µM
- increase of the melting temperature ∆Tm [3]: 13 °C
- Kd ([4]; compound titrated into AMP, one-site binding model): 1000 µM
- binding to Wolbachia LeuRS (in words) (Wolbachia LeuRS): did not bind
- -T∆S (Wolbachia LeuRS): -5.31 kcal/mol
- ∆G (Wolbachia LeuRS): -11.24 kcal/mol
- ∆H (Wolbachia LeuRS): -5.93 kcal/mol
- IC50 [5]: 0.19 µM

Structure (SMILES): CCCC(N)C(=O)NC1C(O)C(CO)OC1n1cnc2c(N)ncnc21 (stereo not shown) [Nva2AA, reference compound]
- -T∆S (Wolbachia LeuRS): 1.79 kcal/mol
- ∆G (Wolbachia LeuRS): -5.94 kcal/mol
- ∆H (Wolbachia LeuRS): -7.73 kcal/mol
